According to the supplement of paper PMC4380931:

Assays:
Test in all cases: apoptotic fraction of cells (caspase-3 NucView488 positive); higher = more apoptosis
SKMEL28 = tested on: SKMEL28
Experimental: (§1)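 BRAF V600E/D melanoma cell lines were seeded in 96-well plates, treated in 4 replicates with seven doses (3.16 nM to 3.16 uM) of RAF/MEK inhibitors for 24, 48 or 72 h, and stained with Hoechst 33342 (nuclei) and DEVD-NucView488 caspase-3 substrate. Plates were imaged on an Operetta. Relative viability is the cell count normalised to a DMSO-treated control; apoptosis fraction is the fraction of NucView488-positive nuclei.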

WM115 = tested on: WM115
Experimental: as §1

WM1552C = tested on: WM1552C
Experimental: as §1

RVH421 = tested on: RVH421
Experimental: as §1

LOXIMVI = tested on: LOXIMVI
Experimental: as §1

MMACSF = tested on: MMACSF
Experimental: as §1

MZ7MEL = tested on: MZ7MEL
Experimental: as §1

Cn1cnc2c(F)c(Nc3ccc(Br)cc3Cl)c(C(=O)NOCCO)cc21 [Selumetinib]
apoptotic fraction of cells
Settings	0.00316 µM	0.01 µM	0.0316 µM	0.1 µM	0.316 µM	1 µM	3.16 µM
LOXIMVI, 24 h	0.0508	0.0393	0.0293	0.0452	0.0393	0.0476	0.0428
LOXIMVI, 48 h	0.111	0.0778	0.0621	0.0589	0.0582	0.0523	0.0597
LOXIMVI, 72 h	0.161	0.0676	0.0426	0.0445	0.0604	0.0759	0.105
MMACSF, 24 h	0.0508	0.0478	0.0349	0.0436	0.0526	0.0569	0.0615
MMACSF, 48 h	0.0481	0.039	0.0469	0.0518	0.0667	0.14	0.232
MMACSF, 72 h	0.0392	0.0379	0.0318	0.0807	0.193	0.434	0.617
MZ7MEL, 24 h	0.0105	0.0133	0.0129	0.013	0.021	0.03	0.0358
MZ7MEL, 48 h	0.02	0.0157	0.0142	0.0195	0.0385	0.0514	0.0696
MZ7MEL, 72 h	0.0201	0.0173	0.0366	0.108	0.158	0.239	0.314
RVH421, 24 h	0.0531	0.0501	0.0442	0.0496	0.0515	0.0523	0.0612
RVH421, 48 h	0.0489	0.0601	0.0622	0.0642	0.0635	0.0671	0.0755
RVH421, 72 h	0.0328	0.0321	0.0318	0.0418	0.0438	0.0599	0.0977
SKMEL28, 48 h	0.0348	0.0333	0.0343	0.0355	0.0422	0.0573	0.0991
SKMEL28, 72 h	0.036	0.0338	0.0305	0.037	0.0563	0.111	0.214
WM115, 24 h	0.0496	0.0509	0.0515	0.0423	0.0578	0.102	0.143
WM115, 48 h	0.0459	0.0343	0.0345	0.0394	0.072	0.186	0.269
WM115, 72 h	0.0278	0.027	0.0324	0.0559	0.115	0.302	0.456
WM1552C, 24 h	0.0571	0.0689	0.0771	0.0894	0.0876	0.112	0.0803
WM1552C, 48 h	0.065	0.0655	0.0575	0.0656	0.0753	0.0765	0.1
WM1552C, 72 h	0.0885	0.073	0.0737	0.0814	0.104	0.146	0.19

CN(C)CCOc1ccc(-c2nc(-c3ccncc3)c(-c3ccc4c(c3)CC/C4=N\O)[nH]2)cc1
apoptotic fraction of cells
Settings	0.00316 µM	0.01 µM	0.0316 µM	0.1 µM	0.316 µM	1 µM	3.16 µM
LOXIMVI, 24 h	0.0512	0.0389	0.0361	0.0658	0.0417	0.0511	0.0461
LOXIMVI, 48 h	0.143	0.0806	0.0671	0.0471	0.0374	0.0404	0.0453
LOXIMVI, 72 h	0.253	0.188	0.135	0.0607	0.0478	0.0458	0.0628
MMACSF, 24 h	0.0448	0.0421	0.0446	0.0491	0.0475	0.048	0.0414
MMACSF, 48 h	0.0482	0.0408	0.041	0.0486	0.0567	0.0889	0.0951
MMACSF, 72 h	0.0417	0.0427	0.0345	0.0358	0.0666	0.155	0.224
MZ7MEL, 24 h	0.0126	0.0117	0.0102	0.0118	0.0151	0.0236	0.0357
MZ7MEL, 48 h	0.0138	0.019	0.0145	0.0141	0.0253	0.0408	0.0727
MZ7MEL, 72 h	0.017	0.0127	0.0173	0.0271	0.0568	0.0967	0.143
RVH421, 24 h	0.0543	0.0588	0.0478	0.0495	0.0536	0.062	0.0619
RVH421, 48 h	0.05	0.0534	0.0615	0.0578	0.0567	0.0708	0.0883
RVH421, 72 h	0.0342	0.0346	0.0361	0.044	0.0408	0.0371	0.033
SKMEL28, 48 h	0.0386	0.034	0.0305	0.0338	0.042	0.0432	0.0466
SKMEL28, 72 h	0.0377	0.0332	0.0271	0.0305	0.0316	0.0381	0.259
WM115, 24 h	0.0434	0.0337	0.0512	0.0473	0.0461	0.0874	0.0958
WM115, 48 h	0.047	0.0376	0.0402	0.0491	0.0688	0.101	0.131
WM115, 72 h	0.0298	0.031	0.0346	0.0452	0.0689	0.144	0.158
WM1552C, 24 h	0.059	0.05804	0.0561	0.0693	0.0643	0.0626	0.0608
WM1552C, 48 h	0.075	0.0725	0.0713	0.067	0.0576	0.0631	0.0655
WM1552C, 72 h	0.0862	0.0741	0.0679	0.0654	0.0685	0.0776	0.113

CCCS(=O)(=O)Nc1ccc(F)c(C(=O)c2c[nH]c3ncc(-c4ccc(Cl)cc4)cc23)c1F [Vemurafenib]
apoptotic fraction of cells
Settings	0.00316 µM	0.01 µM	0.0316 µM	0.1 µM	0.316 µM	1 µM	3.16 µM
LOXIMVI, 24 h	0.0511	0.0524	0.0364	0.0578	0.0383	0.0551	0.0557
LOXIMVI, 48 h	0.103	0.0517	0.0505	0.0455	0.0414	0.0496	0.0897
LOXIMVI, 72 h	0.191	0.153	0.0537	0.0438	0.0484	0.074	0.129
MMACSF, 24 h	0.0413	0.0384	0.0409	0.0412	0.0459	0.0484	0.0553
MMACSF, 48 h	0.0481	0.0447	0.0414	0.0439	0.0499	0.0573	0.122
MMACSF, 72 h	0.0401	0.0441	0.0407	0.0382	0.0493	0.265	0.692
MZ7MEL, 24 h	0.0137	0.0131	0.00722	0.00978	0.0118	0.0206	0.0379
MZ7MEL, 48 h	0.0184	0.0167	0.0196	0.0148	0.0203	0.0385	0.0682
MZ7MEL, 72 h	0.0218	0.0158	0.0159	0.0167	0.0378	0.103	0.193
RVH421, 24 h	0.04937	0.0545	0.0463	0.0489	0.0609	0.0547	0.0664
RVH421, 48 h	0.0497	0.0508	0.0538	0.0604	0.0622	0.0737	0.0864
RVH421, 72 h	0.0342	0.0343	0.0341	0.0335	0.0444	0.0453	0.0682
SKMEL28, 48 h	0.0412	0.0316	0.0337	0.0359	0.0364	0.038	0.0538
SKMEL28, 72 h	0.0393	0.0398	0.0297	0.0272	0.0276	0.0399	0.147
WM115, 24 h	0.0555	0.0451	0.0561	0.0385	0.0444	0.0572	0.0792
WM115, 48 h	0.0621	0.0504	0.0424	0.0407	0.0303	0.045	0.116
WM115, 72 h	0.0323	0.0325	0.0317	0.0278	0.0361	0.125	0.407
WM1552C, 24 h	0.0617	0.0655	0.0602	0.0665	0.0682	0.0745	0.0696
WM1552C, 48 h	0.078	0.0701	0.0688	0.0684	0.063	0.0641	0.0951
WM1552C, 72 h	0.088	0.0756	0.0733	0.0668	0.0671	0.0874	0.164
